# Test results from article PMC8539097, “Structural Insight into a Yeast Maltase—The BaAG2 from Blastobotrys adeninivorans with Transglycosylating Activity” (Journal of Fungi, 2021).
# Biological target: T1, BaAG2 (Blastobotrys adeninivorans, UniProt Z9CO09ION3)
# T1 construct: wild type, recombinant from plasmid pURI3-BaAG2Cter in E. coli BL21(DE3), Ni-IMAC purified (plus SEC for crystals); domains span residues 1-581; most likely monomer
# T1 sequence (Z9CO09ION3 1-580): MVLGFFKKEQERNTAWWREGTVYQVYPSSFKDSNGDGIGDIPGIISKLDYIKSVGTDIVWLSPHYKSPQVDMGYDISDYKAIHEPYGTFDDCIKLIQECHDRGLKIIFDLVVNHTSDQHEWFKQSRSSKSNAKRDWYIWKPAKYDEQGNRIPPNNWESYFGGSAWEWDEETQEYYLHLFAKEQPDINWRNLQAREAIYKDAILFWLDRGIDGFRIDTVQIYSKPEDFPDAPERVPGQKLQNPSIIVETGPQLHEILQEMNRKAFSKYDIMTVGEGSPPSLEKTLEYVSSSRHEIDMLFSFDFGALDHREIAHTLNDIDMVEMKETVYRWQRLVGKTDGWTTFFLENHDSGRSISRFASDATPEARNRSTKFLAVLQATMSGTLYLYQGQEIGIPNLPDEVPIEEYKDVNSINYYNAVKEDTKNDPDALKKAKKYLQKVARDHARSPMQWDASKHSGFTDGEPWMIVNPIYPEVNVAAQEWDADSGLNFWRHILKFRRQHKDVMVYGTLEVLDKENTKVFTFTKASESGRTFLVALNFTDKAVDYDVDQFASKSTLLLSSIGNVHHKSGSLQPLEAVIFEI
# Experiment: X-ray crystallography, crystal soaking, […] Å
# Assay type: binding
# Settings: pH 5.5, 100 mM glucose soak; active site, subsite -1
smiles,measurement,value
OC[C@H]1OC(O)[C@H](O)[C@@H](O)[C@@H]1O (stereo partly drawn) [D-glucose],"X-ray crystallography, crystal soaking, 2.13 Å",codes 7P01 (BaAG2-acarbose) and 7P07 (BaAG2-glucose)
